# Counter-ions that a name gives are not always drawn. Positions of bridges follow the written chain, without caps; N, C: chain ends. Non-standard residues stand in square brackets, D forms with d. Residues, ends and D or L forms follow the SMILES beside them. NBnAla = C[C@H](NCc1ccccc1)C(=O)O
# Assays:
# Genome polyprotein [1] = molecular target: T1, Genome polyprotein (dengue virus type 2, UniProt P29990); assay: Inhibition of DENV2 NS2B-NS3 protease using […] as substrate preincubated for 10 mins followed by substrate addition and incubated for 60 mins by fluorescence spectroscopy assay
# [2] = Inhibition of DENV2 pro; set-up: species or system dengue virus type 2
# Genome polyprotein [3] = molecular target: T1, Genome polyprotein; assay: Inhibition of DENV2 NS2B-NS3 protease using Boc-Gly-Arg-Arg-MCA as substrate by fluorescence assay
# Genome polyprotein [4] = molecular target: T1, Genome polyprotein; assay: Binding affinity to DENV2 NS2B/NS3 protease assessed as inhibition constant
# Genome polyprotein [5] = molecular target: T1, Genome polyprotein; assay: Inhibition of DENV2 NS2B-NS3 protease
# dengue virus type 2 [6] = assay: Antiviral activity against Dengue virus 2 infected in african green monkey Vero cells assessed as reduction in viral titer; format: functional, organism-based
# [7] = Binding affinity to wildtype DENV3 protease assessed as inhibition constant using [Ac-[D-EDANS]KRRSWP[K-DABCYL]-AMIDE] as substrate by FRET-based enzymatic assay; set-up: species or system dengue virus type 3
# Genome polyprotein [8] = molecular target: T1, Genome polyprotein; assay: Inhibition of DENV2 NS2B-NS3 protease using Boc-Gly-Arg-Arg-7-amino-4-methylcoumarin as substrate incubated for 10 mins by fluorometric assay
# [9] = Permeability of the compound at pH 7.4; format: ADME; conditions: PAMPA, read-out: permeability
# [10] = Inhibition of West Nile Virus NS2B (residues 1393 to 1440 )/NS3pro (residues 1476 to 1687) protease expressed in Escherichia coli BL21 (DE3) using e Pyr- RTKR-AMC as substrate preincubated for 30 mins followed by substrate addition and incubated for 90 mins by fluorescence spectrophotometry assay
# dengue virus type 2 [11] = assay: Antiviral activity against DENV2; format: functional, organism-based
# Genome polyprotein [12] = molecular target: T1, Genome polyprotein; assay: Inhibition of DENV2 NS2B-NS3 protease using fluorophore-tagged Bz-nKRR-AMC as substrate preincubated for 30 mins followed by substrate addition measured after 90 mins by microplate reader analysis
# T1 sequence (P29990 1346-1475 limits assumed): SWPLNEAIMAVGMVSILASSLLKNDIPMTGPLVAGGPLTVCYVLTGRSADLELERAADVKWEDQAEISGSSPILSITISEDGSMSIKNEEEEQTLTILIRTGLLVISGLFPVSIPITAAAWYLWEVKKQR
# T1 sequence (P29990 1476-2093 limits assumed): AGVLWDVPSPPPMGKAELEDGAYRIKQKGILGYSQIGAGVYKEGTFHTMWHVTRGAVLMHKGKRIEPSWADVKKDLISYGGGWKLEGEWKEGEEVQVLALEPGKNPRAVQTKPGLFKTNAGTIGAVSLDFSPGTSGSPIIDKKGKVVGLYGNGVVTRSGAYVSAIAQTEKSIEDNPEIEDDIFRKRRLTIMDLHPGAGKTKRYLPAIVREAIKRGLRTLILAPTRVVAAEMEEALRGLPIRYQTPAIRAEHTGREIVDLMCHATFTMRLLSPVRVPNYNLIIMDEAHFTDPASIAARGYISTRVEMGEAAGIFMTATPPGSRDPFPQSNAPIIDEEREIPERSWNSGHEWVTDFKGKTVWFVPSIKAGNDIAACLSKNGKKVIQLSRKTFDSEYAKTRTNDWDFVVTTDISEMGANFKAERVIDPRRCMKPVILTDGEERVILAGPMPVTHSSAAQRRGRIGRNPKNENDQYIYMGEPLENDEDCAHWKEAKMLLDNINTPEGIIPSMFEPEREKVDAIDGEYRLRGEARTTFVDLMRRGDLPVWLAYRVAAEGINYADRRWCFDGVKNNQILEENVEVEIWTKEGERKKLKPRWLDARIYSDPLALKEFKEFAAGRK
compound,measurement,setting,value
COc1cc(O)c(C(=O)[C@@H]2[C@H](CC=C(C)C)C(C)=CC[C@H]2c2ccccc2)c(O)c1 [PANDURATIN A],IC50,Genome polyprotein [1],57.3 µM
N=C(N)NCCC[C@H](NC(=O)c1nccs1)C(=O)N[C@@H](CCCCN)C(=O)N[C@@H](C(N)=O)c1ccc(OCc2ccc(C(F)(F)F)cc2)cc1,IC50,[2],0.018 µM
CCCCC1C(C(=O)N(C)OC)C(c2ccccc2)CCN1C(=O)OC(C)(C)C (stereo unspecified),IC50,Genome polyprotein [3],257 µM
N=C(N)NCCC[C@@H]1NC(=O)[C@H](CCCCN)NC(=O)CNC(=O)[C@@H](N)CSSC[C@@H](C(=O)O)NC(=O)[C@H](CO)NC(=O)[C@H](CCCCN)NC1=O (H-CGKRKSC-OH; disulfide 1-7),Ki,Genome polyprotein [4],1.4 µM
same,Ki,Genome polyprotein [5],1.4 µM
O=[N+]([O-])c1ccc(N=Nc2ccc(O)c3ccccc23)c([N+](=O)[O-])c1,Ki,Genome polyprotein [4],15 µM
same,Ki,Genome polyprotein [5],15 µM
O=C(Nc1nc2cc(O)c(O)cc2s1)c1ccccc1Sc1ccc(C(F)(F)F)cc1,EC50,dengue virus type 2 [6],> 3 µM
same,IC50,[2],3.6 µM
CC[C@H](C)[C@@H]1NC(=O)[C@H](CCCNC(=N)N)NC(=O)[C@H](C)NC(=O)[C@H](CCCNC(=N)N)NC(=O)[C@@H](NC(=O)[C@@H]2CCCN2)CSSC[C@@H](C(=O)N[C@@H](C)C(=O)O)NC(=O)CNC(=O)CNC(=O)[C@H](Cc2ccc(O)cc2)NC1=O (H-PCRARIYGGCA-OH; disulfide 2-10),Ki,[7],966 µM
CC[C@H](C)[C@@H]1NC(=O)[C@H](CCCNC(=N)N)NC(=O)[C@H](C)NC(=O)[C@H](CCCCN)NC(=O)[C@@H](NC(=O)[C@@H]2CCCN2)CSSC[C@@H](C(=O)N[C@@H](C)C(=O)O)NC(=O)CNC(=O)CNC(=O)[C@H](Cc2ccc(O)cc2)NC(=O)CNC(=O)CNC(=O)[C@H]([C@@H](C)CC)NC1=O (H-PCKARIIGGYGGCA-OH; disulfide 2-13),Ki,[7],678 µM
COc1cc2nc(NC(=O)c3ccccc3Sc3ccc(C(F)(F)F)cc3)sc2cc1OC,EC50,dengue virus type 2 [6],2.5 µM
O=C(Nc1nc2ccc([N+](=O)[O-])cc2s1)c1ccccc1Sc1ccc(C(F)(F)F)cc1,EC50,dengue virus type 2 [6],0.1 µM
same,IC50,Genome polyprotein [8],22 µM
N=C(N)N/N=C/c1ccc(/C=N/NC(=N)N)cc1,Ki,Genome polyprotein [4],44 µM
same,Ki,Genome polyprotein [5],44 µM
CC[C@H](C)[C@@H]1NC(=O)[C@H](CCCNC(=N)N)NC(=O)[C@H](C)NC(=O)[C@H](CCCNC(=N)N)NC(=O)[C@@H](NC(=O)[C@@H]2CCCN2)CSSC[C@@H](C(=O)N[C@@H](CCCNC(=N)N)C(=O)O)NC(=O)CNC(=O)CNC1=O (H-PCRARIGGCR-OH; disulfide 2-9),Ki,[7],29.7 µM
CC[C@H](C)[C@@H]1NC(=O)[C@H](CCCNC(=N)N)NC(=O)[C@H](C)NC(=O)[C@H](CCCNC(=N)N)NC(=O)[C@@H](NC(=O)[C@@H]2CCCN2)CSSC[C@@H](C(=O)N[C@@H](C)C(=O)O)NC(=O)CNC(=O)CNC1=O (H-PCRARIGGCA-OH; disulfide 2-9),Ki,[7],780 µM
CCN1/C(=C/C=C/c2oc3ccc4ccccc4c3[n+]2CC)Oc2ccc3ccccc3c21,IC50,Genome polyprotein [5],27 µM
CC[C@H](C)[C@@H]1NC(=O)[C@H](Cc2c[nH]c3ccccc23)NC(=O)[C@H](C)NC(=O)[C@H](CCCNC(=N)N)NC(=O)[C@@H](NC(=O)[C@@H]2CCCN2)CSSC[C@@H](C(=O)N[C@H](CCCNC(=N)N)C(=O)O)NC(=O)CNC(=O)CNC(=O)[C@H](Cc2ccc(O)cc2)NC1=O,Ki,[7],19.7 µM
CC[C@H](C)[C@@H]1NC(=O)[C@H](CCCNC(=N)N)NC(=O)[C@H](C)NC(=O)[C@H](CCCCN)NC(=O)[C@@H](NC(=O)[C@@H]2CCCN2)CSSC[C@@H](C(=O)N[C@@H](C)C(=O)O)NC(=O)CNC(=O)CNC(=O)[C@H](Cc2ccc(O)cc2)NC1=O (H-PCKARIYGGCA-OH; disulfide 2-10),Ki,[7],14.5 µM
CCCCC(CC)CN=C(N)N=C(N)NCCCCCCNC(N)=NC(N)=NCC(CC)CCCC (stereo unspecified) [ALEXIDINE HYDROCHLORIDE],Ki,Genome polyprotein [5],41 µM
CC[C@H](C)[C@@H]1NC(=O)[C@H](Cc2c[nH]c3ccccc23)NC(=O)[C@H](C)NC(=O)[C@H](CCCNC(=N)N)NC(=O)[C@@H](NC(=O)[C@@H]2CCCN2)CSSC[C@@H](C(=O)N[C@H](C)C(=O)O)NC(=O)CNC(=O)CNC(=O)[C@H](Cc2ccc(O)cc2)NC1=O,Ki,[7],145 µM
C[C@H](NCc1ccccc1)C(=O)N[C@@H](CCCCN)C(=O)N[C@@H](CCCNC(=N)N)C(=O)N[C@@H](CCCNC(=N)N)C(=O)O (H-[NBnAla]KRR-OH),Ki,Genome polyprotein [4],5.3 µM
same,Ki,Genome polyprotein [5],5.3 µM
Oc1c(C(Nc2ccccc2)c2ccccn2)ccc2cccnc12 (stereo unspecified),Ki,Genome polyprotein [4],17 µM
same,Papp,[9],4.12 ×10⁻⁶ cm/s
same,Ki,Genome polyprotein [5],17 µM
CC[C@H](C)[C@@H]1NC(=O)[C@H](CCCNC(=N)N)NC(=O)[C@H](C)NC(=O)[C@H](CCCNC(=N)N)NC(=O)[C@@H](NC(=O)[C@@H]2CCCN2)CSSC[C@@H](C(=O)N[C@@H](C)C(=O)O)NC(=O)CNC(=O)[C@H](Cc2ccc(O)cc2)NC1=O (H-PCRARIYGCA-OH; disulfide 2-9),Ki,[7],468 µM
O=C(O)c1cc2sc(NC(=O)c3ccccc3Sc3ccc(C(F)(F)F)cc3)nc2cc1O,EC50,dengue virus type 2 [6],0.9 µM
N#C/C(=C\c1ccc(O)cc1)C(N)=O,Ki,Genome polyprotein [4],35.7 µM
same,Papp,[9],8.4 ×10⁻⁶ cm/s
same,Ki,Genome polyprotein [5],35.7 µM
O=C1/C(=C\c2ccc([N+](=O)[O-])cc2)CN(CC(=O)c2ccc(F)cc2)C/C1=C/c1ccc([N+](=O)[O-])cc1,IC50,Genome polyprotein [1],15.2 µM
COc1ccc(S(=O)(=O)n2nc(OC(=O)c3ccccc3)cc2N)cc1,IC50,[10],0.105 µM
CC[C@H](C)[C@@H]1NC(=O)[C@H](CCCNC(=N)N)NC(=O)[C@H](C(C)C)NC(=O)[C@H](CCCNC(=N)N)NC(=O)[C@@H](NC(=O)[C@@H]2CCCN2)CSSC[C@@H](C(=O)N[C@H](C)C(=O)O)NC(=O)CNC(=O)CNC(=O)[C@H](CC(=O)O)NC1=O,Ki,[7],35.8 µM
N=C(N)Nc1ccc(OC(=O)c2ccc(NC(=N)N)cc2)cc1,Ki,Genome polyprotein [4],2 µM
same,Ki,Genome polyprotein [5],2 µM
Cc1c(O)cccc1C(=O)NC(CSc1ccccc1)C(O)CN1CC2CCCCC2C[C@H]1C(=O)NC(C)(C)C (stereo partly specified),EC50,dengue virus type 2 [11],3.5 µM
CC[C@H](C)[C@@H]1NC(=O)[C@H](CCCNC(=N)N)NC(=O)[C@H](C)NC(=O)[C@H](CCCNC(=N)N)NC(=O)[C@@H](NC(=O)c2ccccc2)CSSC[C@@H](C(=O)N[C@H](C)C(=O)O)NC(=O)CNC(=O)CNC(=O)[C@H](Cc2ccc(O)cc2)NC1=O,Ki,[7],33.2 µM
COc1ccc(S(=O)(=O)n2nc(Oc3ccc(-c4ccccc4)cc3)cc2N)cc1,IC50,Genome polyprotein [12],2.9 µM
COc1ccc(C(=O)CN2C/C(=C/c3ccc([N+](=O)[O-])cc3)C(=O)/C(=C\c3ccc([N+](=O)[O-])cc3)C2)cc1,IC50,Genome polyprotein [1],16.2 µM
CO[C@H]1C[C@H](O[C@@H]2/C(C)=C/C[C@@H]3C[C@@H](C[C@]4(CC[C@H](C)[C@@H](C5CCCCC5)O4)O3)OC(=O)[C@@H]3C=C(C)/C(=N/O)[C@H]4OC/C(=C\C=C\[C@@H]2C)[C@]43O)O[C@@H](C)[C@@H]1O [SELAMECTIN],Ki,Genome polyprotein [4],63 µM
CC[C@H](C)[C@@H]1NC(=O)[C@H](CCCNC(=N)N)NC(=O)[C@H](C)NC(=O)[C@H](CCCNC(=N)N)NC(=O)[C@@H](NC(=O)[C@@H]2CCCN2)CSSC[C@@H](C(=O)N[C@H](C)C(=O)O)NC(=O)CNC(=O)CNC(=O)[C@H](CC(=O)O)NC1=O,Ki,[7],69.3 µM
IVERMECTIN,Ki,Genome polyprotein [4],79 µM
same,Ki,Genome polyprotein [5],79 µM
CC[C@H](C)[C@@H]1NC(=O)[C@H](CCCNC(=N)N)NC(=O)[C@H](C)NC(=O)[C@H](CCCNC(=N)N)NC(=O)[C@@H](NC(=O)[C@@H]2CCCN2)CSSC[C@@H](C(=O)N[C@@H](C)C(=O)O)NC(=O)CNC1=O (H-PCRARIGCA-OH; disulfide 2-8),Ki,[7],101 µM
N=C(N)NCCC[C@@H](NC1NC(=O)C(N[C@H](CCCCN)C(=O)O)NC(=O)C(N2CCC[C@@H]2C(=O)O)NC(=O)C(N[C@H](Cc2ccccc2)C(=O)O)NC(=O)C(N[C@H](CO)C(=O)O)NC(=O)C(N[C@@H](Cc2ccccc2)C(=O)O)NC(=O)C(N[C@@H](CO)C(=O)O)NC(=O)[C@H](CCCCN)NC1=O)C(=O)O (stereo partly specified),IC50,[2],0.95 µM
CC[C@H](C)[C@@H]1NC(=O)[C@H](CCCNC(=N)N)NC(=O)[C@H](C)NC(=O)[C@H](CCCNC(=N)N)NC(=O)[C@@H](N)CSSC[C@@H](C(=O)N[C@@H](C)C(=O)O)NC(=O)CNC(=O)CNC(=O)[C@H](Cc2ccc(O)cc2)NC(=O)CNC1=O (H-CRARIGYGGCA-OH; disulfide 1-10),Ki,[7],145 µM
O=C1OC2(c3ccccc31)c1cc(I)c(O)c(I)c1OC1C(I)=C(O)C(I)=CC12 (stereo unspecified),EC50,dengue virus type 2 [11],1.2 µM
O=C(Nc1nc2ccc([N+](=O)[O-])cc2s1)c1cccc(Sc2ccc([N+](=O)[O-])cc2)c1,EC50,dengue virus type 2 [6],0.3 µM
same,IC50,Genome polyprotein [8],26 µM
CC[C@H](C)[C@@H]1NC(=O)[C@H](CCCNC(=N)N)NC(=O)[C@H](C)NC(=O)[C@H](CCCCN)NC(=O)[C@@H](NC(=O)[C@@H]2CCCN2)CSSC[C@@H](C(=O)N[C@@H](CCCNC(=N)N)C(=O)O)NC(=O)CNC(=O)CNC(=O)[C@H](Cc2ccc(O)cc2)NC(=O)CNC(=O)CNC(=O)[C@H]([C@@H](C)CC)NC1=O (H-PCKARIIGGYGGCR-OH; disulfide 2-13),Ki,[7],232 µM
CC[C@H](C)[C@@H]1NC(=O)[C@H](CCCNC(=N)N)NC(=O)[C@H](C(C)C)NC(=O)[C@H](CCCNC(=N)N)NC(=O)[C@@H](NC(=O)[C@@H]2CCCN2)CSSC[C@@H](C(=O)N[C@H](C)C(=O)O)NC(=O)CNC(=O)CNC(=O)[C@H](Cc2ccc(O)cc2)NC1=O,Ki,[7],25.6 µM
CC[C@H](C)[C@@H]1NC(=O)[C@H](CCCNC(=N)N)NC(=O)[C@H](C)NC(=O)[C@H](CCCCN)NC(=O)[C@@H](NC(=O)[C@@H]2CCCN2)CSSC[C@@H](C(=O)N[C@@H](C)C(=O)O)NC(=O)CNC(=O)CNC(=O)[C@H](Cc2ccc(O)cc2)NC(=O)CNC1=O (H-PCKARIGYGGCA-OH; disulfide 2-11),Ki,[7],377 µM
O=C(Nc1nc2ccc([N+](=O)[O-])cc2s1)c1ccccc1Sc1ccc([N+](=O)[O-])cc1,IC50,Genome polyprotein [8],34 µM
